One data set concerns monkeys. The following applies: cited from earlier work.
For data set [1] the following is noted: cited from earlier work; for average concentration of ofloxacin in saliva: oral, 200 mg/body, 8 subjects.
The nature of data set [2]: Concentration of ofloxacin in periodontal fluid in the pockets after local administration. It is filed as in vivo, volunteers. The procedure:
The preparations of Example 3 containing ofloxacin to be inserted into the periodontal pockets were locally administered to the pockets of volunteers and the concentration of ofloxacin in the periodontal fluid in the pockets was determined and compared with that in saliva obtained by oral administration thereof. In the test, the preparations of Example 3 having a thickness of 0.3 mm and width of 1 mm was cut into strips having a length of 4 mm (each containing 0.06 mg of ofloxacin). The strip was inserted into a periodontal pocket of each volunteer. The probing depth of the pocket was 5 mm. After a given time, a filter paper having a width of 1 mm was inserted into the pocket to take the periodontal fluid out of the pocket. The amount of ofloxacin in the periodontal fluid was determined from the diameter of an inhibition circle according to an agar plate diffusion method with E. coli K 12. The quantity of the periodontal fluid thus taken out was determined from a calibration curve prepared from the quantity of a previously prepared liquid sample and the wetted area of the filter paper. The concentration of ofloxacin was thus determined. The time profile of the concentration of ofloxacin in saliva in the oral administration was taken from a report of Morihana et al. (Chemotherapy, 32: Sl, 1070, 1984).

A further data set concerns dogs. The following applies: cited from earlier work.

Molecules are shown by their SMILES. Like-named read-outs stand apart in the source and are kept apart here. A value given as a limit tells only on which side of the number the result lay.

Turning to `CC1COc2c(N3CCN(C)CC3)c(F)cc3c(=O)c(C(=O)O)cn1c23` (stereo not drawn) [ofloxacin, 9-fluoro-2,3-dihydro-3-methyl-10-(4-methyl-1-piperazinyl)-7-oxo-7H-pyrido[1,2,3-de][1,4]benzoxazine-6-carboxylic acid], the “Acute toxicity (LD50 in oral administration)” value in the data set on monkeys is recorded as 500 to 1,000 mg/kg; in the data set on dogs, ≥ 200 mg/kg. In addition, the “maximum concentration in saliva” value in data set [1] (oral administration of 200 mg, in 3 hours) is 1.8 µg/mL. Besides, the “time of maximum concentration in saliva” value in data set [1] (oral administration of 200 mg) was 3 h. The “average concentration of ofloxacin in saliva” value was 1.18 µg/mL in data set [1] (1 h); 1.59 µg/mL in data set [1] (2 h); 1.80 µg/mL in data set [1] (3 h); 1.65 µg/mL in data set [1] (4 h); 1.40 µg/mL in data set [1] (5 h). Also, the “time for which concentration in the pocket was maintained above 70 μg/ml” value in data set [2] (0.06 mg inserted into the periodontal pocket) was > 5 h. Moreover, the concentration at 5 h in data set [2] (human, periodontal fluid, 0.06 mg inserted into the periodontal pocket, for longer than 5 h, read-out: concentration in the pocket maintained) is > 70000 ng/mL. In data set [2] (human, periodontal fluid, 0.06 mg/pocket, 24 h, 8 pockets of 4 subjects), this molecule had a concentration at 24 h of 16600 ng/mL.

The values above are taken from patent US4965262A, “Method for treating or preventing locally periodontal disease” (Rohto Pharmaceutical Co., Ltd., priority 1987, dated 1990).
